Assays:
Format in all cases: in vivo
southern crabgrass [1] = test: Test Example 4: herbicidal effect test by treatment of leave and stem in dry field farming (seven days after seeding); details: 120 g/10a active ingredient; emulsion sprayed seven days after seeding; evaluated 14 days after treatment
In short: (§1)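 Duplicate pots were scored 14 days post-spray by dry weight, herbicidal rate = {1 − treated/untreated average dry weight} × 100. The water-diluted emulsion, equivalent to 120 g active ingredient per 10 ares in 100 L, was applied seven days after sowing 20 seeds each into the upper 1 cm of alluvial soil.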

Chenopodium album [2] = test: as above; details: 120 g/10a active ingredient; emulsion sprayed seven days after seeding; evaluated 14 days after treatment
In short: as §1

Echinochloa crus-galli [3] = test: as above; details: 120 g/10a active ingredient; emulsion sprayed seven days after seeding; evaluated 14 days after treatment
In short: as §1

Amaranthus viridis [4] = test: as above; details: 120 g/10a active ingredient; emulsion sprayed seven days after seeding; evaluated 14 days after treatment
In short: as §1

Scirpus juncoides [5] = test: Test Example 2: herbicidal effect test by treatment during growing period in paddy rice cultivation (seven days after seeding); details: 120 g/10a active ingredient, assessed 14 days after treatment, dry weight vs untreated area
In short: (§2)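 Herbicidal rate = (1 − treated/untreated mean dry weight) × 100, scored 14 days after application, two replicates per rate. Treatment: diluted emulsion dropped onto paddy water seven days after sowing, 120 g active ingredient per 10 ares, in a glass greenhouse.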

[6] = test system: broad leaf weeds (Lindernia pyxidaria and Monochoria vaginalis); test: as above; details: 120 g/10a active ingredient, assessed 14 days after treatment, dry weight vs untreated area
In short: as §2

Echinochloa crus-galli [7] = test: as above; details: 120 g/10a active ingredient, assessed 14 days after treatment, dry weight vs untreated area
In short: as §2

southern crabgrass [8] = test: Test Example 3: herbicidal effect test by treatment of dry field farming soil (one day after seeding); details: 120 g/10a active ingredient, evaluated 14 days after treatment
In short: (§3)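 Seeds (20 each) mixed into top 1 cm of alluvium in pots, surface pressed. One day later, diluted emulsion sprayed onto soil, 100 L/10 a, 120 g a.i./10 a. Dry weight at 14 d vs untreated gave % herbicidal rate; n=2.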

Chenopodium album [9] = test: as above; details: 120 g/10a active ingredient, evaluated 14 days after treatment
In short: as §3

Echinochloa crus-galli [10] = test: as above; details: 120 g/10a active ingredient, evaluated 14 days after treatment
In short: as §3

Amaranthus viridis [11] = test: as above; details: 120 g/10a active ingredient, evaluated 14 days after treatment
In short: as §3

Scirpus juncoides [12] = test: Test Example 1: herbicidal effect test by treatment of rice paddy soil (immediately after seeding); details: 120 g/10a active ingredient, dry weight vs untreated area, 14 days after treatment
In short: (§4)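 Applied at 120 g a.i./10 ares as diluted emulsion dropped into flooded (~3 cm) paddy soil pots right after sowing seeds 0–1 cm deep; greenhouse, two replicates. At day 14, dry weight of treated versus untreated plants gives % herbicidal rate.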

[13] = test system: broad leaf weeds (Lindernia pyxidaria and Monochoria vaginalis); test: as above; details: 120 g/10a active ingredient, dry weight vs untreated area, 14 days after treatment
In short: as §4

Echinochloa crus-galli [14] = test: as above; details: 120 g/10a active ingredient, dry weight vs untreated area, 14 days after treatment
In short: as §4

Row | Compound | herbicidal effect (herbicidal rate), southern crabgrass (southern crabgrass [1]) | herbicidal effect (herbicidal rate), Chenopodium album (Chenopodium album [2]) | herbicidal effect (herbicidal rate), Echinochloa crus-galli (Echinochloa crus-galli [3]) | herbicidal effect (herbicidal rate), Amaranthus viridis (Amaranthus viridis [4]) | Herbicidal rate (%) Scirpus juncoides (Scirpus juncoides [5]) | Herbicidal rate (%) Lindernia pyxidaria [6] | Herbicidal rate (%) Monochoria vaginalis [6] | Herbicidal rate (%) Echinochloa crus-galli (Echinochloa crus-galli [7]) | herbicidal rate, southern crabgrass (southern crabgrass [8]) | herbicidal rate, Chenopodium album (Chenopodium album [9]) | herbicidal rate, Echinochloa crus-galli (Echinochloa crus-galli [10]) | herbicidal rate, Amaranthus viridis (Amaranthus viridis [11]) | Herbicidal rate (%) Scirpus juncoides (Scirpus juncoides [12]) | Herbicidal rate (%) Lindernia pyxidaria [13] | Herbicidal rate (%) Monochoria vaginalis [13] | Herbicidal rate (%) Echinochloa crus-galli (Echinochloa crus-galli [14])
1 | Cc1c(Cc2ccccc2NS(=O)(=O)C(F)(F)F)c(=O)on1CCC(C)C [Compound 1-115] | 40% | 40% | 60% | 40% | 90% | 80% | 80% | 90% | 90% | 100% | 90% | 100% | 90% | 90% | 90% | 100%
2 | Cc1c(Cc2ccccc2NS(=O)(=O)C(F)(F)F)c(=O)on1CCC(C)(C)C [Compound 1-116] | 40% | 50% | 80% | 60% | 90% | 60% | 80% | 90% | 90% | 50% | 90% | 80% | 90% | 90% | 80% | 90%
3 | CCCCC(C)n1oc(=O)c(Cc2ccccc2NS(=O)(=O)C(F)(F)F)c1C (stereo not shown) [Compound 1-120] | 80% | 50% | 90% | 60% | 90% | 80% | 80% | 90% | 90% | 50% | 90% | 50% | 100% | 100% | 100% | 100%
4 | CCC(C)CCn1oc(=O)c(Cc2ccccc2NS(=O)(=O)C(F)(F)F)c1C (stereo not shown) [Compound 1-124] | 60% | 40% | 70% | 40% | 80% | 60% | 70% | 90% | 80% | 50% | 100% | 40% | 90% | 90% | 90% | 100%
5 | CCCCC(CC)Cn1oc(=O)c(Cc2ccccc2NS(=O)(=O)C(F)(F)F)c1C (stereo not shown) [Compound 1-130] | 60% | 40% | 60% | 50% | 80% | 90% | 90% | 100% | 70% | 50% | 90% | 40% | 100% | 100% | 100% | 100%
6 | C=CC(C)n1oc(=O)c(Cc2ccccc2NS(=O)(=O)C(F)(F)F)c1C (stereo not shown) [Compound 1-136] | 70% | 60% | 70% | 60% | 90% | 60% | 70% | 90% | 100% | 60% | 100% | 100% | 90% | 80% | 70% | 100%
7 | C=C(C)Cn1oc(=O)c(Cc2ccccc2NS(=O)(=O)C(F)(F)F)c1C [Compound 1-137] | 0% | 0% | 80% | 80% | 80% | 40% | 60% | 90% | 50% | 40% | 70% | 40% | 90% | 90% | 70% | 90%
8 | C#CCn1oc(=O)c(Cc2ccccc2NS(=O)(=O)C(F)(F)F)c1C [Compound 1-138] | 80% | 0% | 80% | 40% | 80% | 80% | 80% | 90% | 90% | 0% | 90% | 0% | 90% | 100% | 100% | 90%
9 | Cc1c(Cc2ccccc2NS(=O)(=O)C(F)(F)F)c(=O)on1C1CCCCC1 [Compound 1-142] | 80% | 40% | 90% | 60% | 90% | 90% | 100% | 100% | 90% | 90% | 100% | 70% | 90% | 100% | 90% | 100%
10 | Cc1c(Cc2ccccc2NS(=O)(=O)C(F)(F)F)c(=O)on1C(C)C1CC1 (stereo not shown) [Compound 1-144] | 90% | 0% | 90% | 50% | 90% | 50% | 80% | 90% | 80% | 0% | 70% | 0% | 90% | 90% | 100% | 100%

Reference: US11109593B2, “Isoxazolin-5-one derivative and herbicide containing same as active ingredient” (HOKKO CHEMICAL INDUSTRY CO., LTD., priority 2017, dated 2021)
